Results: ChEMBL document CHEMBL4813981, “Synthesis and in vitro antibacterial activity of new aminothiazole-oximepiperidone cephalosporins” (2021)
Values after ≈ are worked out from the molar mass of the structure shown.

Tests used:
Type in all cases: functional
[1] = test system: Acinetobacter baumannii; assay: Antibacterial activity against Carbapenem- resistant Acinetobacter baumannii 17-5 assessed as reduction in bacterial growth in the presence of Avibactam
[2] = test system: Klebsiella aerogenes; assay: Antibacterial activity against Enterobacter aerogenes 15-5 assessed as reduction in bacterial growth
[3] = test system: Escherichia coli; assay: Antibacterial activity against ESBLs positive Carbapenem-sensitive Escherichia coli 17-14 assessed as reduction in bacterial growth
[4] = test system: Klebsiella pneumoniae; assay: Antibacterial activity against Carbapenem- sensitive Klebsiella pneumoniae 17-12 overexpressing extended spectrum beta-lactamases assessed as reduction in bacterial growth
[5] = test system: Klebsiella pneumoniae; assay: Antibacterial activity against Carbapenem- resistant Klebsiella pneumoniae KR 15-12 assessed as reduction in bacterial growth
[6] = test system: Klebsiella pneumoniae; assay: Antibacterial activity against Carbapenem- resistant Klebsiella pneumoniae KR 15-10 assessed as reduction in bacterial growth
[7] = test system: Pseudomonas aeruginosa; assay: Bactericidal activity against Carbapenem- resistant Pseudomonas aeruginosa 17-1 assessed as reduction in bacterial growth in the presence of avibactam
[8] = test system: Enterobacter cloacae; assay: Antibacterial activity against Enterobacter cloacae 17-10 assessed as reduction in bacterial growth
[9] = test system: Pseudomonas aeruginosa; assay: Antibacterial activity against Carbapenem- sensitive Pseudomonas aeruginosa 17-7 assessed as reduction in bacterial growth
[10] = test system: Klebsiella pneumoniae; assay: Antibacterial activity against Multidrug resistant Klebsiella pneumoniae KR 15-2 assessed as reduction in bacterial growth
[11] = test system: Klebsiella pneumoniae; assay: Antibacterial activity against ESBLs negative Carbapenem-sensitive Klebsiella pneumoniae 17-18 assessed as reduction in bacterial growth
[12] = test system: Klebsiella pneumoniae; assay: Antibacterial activity against Carbapenem- sensitive Klebsiella pneumoniae 17-9 overexpressing extended spectrum beta-lactamases assessed as reduction in bacterial growth
[13] = test system: Enterobacter cloacae; assay: Bactericidal activity against Enterobacter cloacae 17-10 assessed as reduction in bacterial growth in the presence of avibactam
[14] = test system: Klebsiella pneumoniae; assay: Antibacterial activity against Carbapenem- sensitive Klebsiella pneumoniae 17-4 overexpressing extended spectrum beta-lactamases assessed as reduction in bacterial growth
[15] = test system: Klebsiella aerogenes; assay: Bactericidal activity against Enterobacter aerogenes 15-3 assessed as reduction in bacterial growth in the presence of avibactam
[16] = test system: Pseudomonas aeruginosa; assay: Antibacterial activity against Carbapenem- resistant Pseudomonas aeruginosa 17-1 assessed as reduction in bacterial growth in the presence of Avibactam
[17] = test system: Klebsiella aerogenes; assay: Antibacterial activity against Enterobacter aerogenes 17-4 assessed as reduction in bacterial growth
[18] = test system: Klebsiella pneumoniae; assay: Antibacterial activity against Carbapenem- resistant Klebsiella pneumoniae KR 15-11 assessed as reduction in bacterial growth in the presence of Avibactam
[19] = test system: Klebsiella pneumoniae; assay: Antibacterial activity against ESBLs positive Carbapenem-sensitive Klebsiella pneumoniae 17-1 assessed as reduction in bacterial growth in the presence of Avibactam
[20] = test system: Klebsiella pneumoniae; assay: Antibacterial activity against Carbapenem- resistant Klebsiella pneumoniae KR 15-11 assessed as reduction in bacterial growth
[21] = test system: Klebsiella pneumoniae; assay: Antibacterial activity against ESBLs negative Carbapenem-sensitive Klebsiella pneumoniae 17-18 assessed as reduction in bacterial growth in the presence of Avibactam
[22] = test system: Escherichia coli; assay: Antibacterial activity against Escherichia coli ATCC 25922 assessed as reduction in bacterial growth in the presence of Avibactam
[23] = test system: Klebsiella pneumoniae; assay: Antibacterial activity against Carbapenem- sensitive Klebsiella pneumoniae 17-13 overexpressing extended spectrum beta-lactamases assessed as reduction in bacterial growth
[24] = test system: Klebsiella pneumoniae; assay: Bactericidal activity against Carbapenem- resistant Klebsiella pneumoniae KR 15-6 assessed as reduction in bacterial growth in the presence of avibactam
[25] = test system: Klebsiella aerogenes; assay: Antibacterial activity against Enterobacter aerogenes 17-5 assessed as reduction in bacterial growth
[26] = test system: Klebsiella pneumoniae; assay: Antibacterial activity against Carbapenem- sensitive Klebsiella pneumoniae 17-5 overexpressing extended spectrum beta-lactamases assessed as reduction in bacterial growth
[27] = test system: Pseudomonas aeruginosa; assay: Antibacterial activity against Carbapenem- resistant Pseudomonas aeruginosa 17-1 assessed as reduction in bacterial growth
[28] = test system: Acinetobacter baumannii; assay: Antibacterial activity against Carbapenem- resistant Acinetobacter baumannii 17-2 assessed as reduction in bacterial growth
[29] = test system: Klebsiella pneumoniae; assay: Antibacterial activity against Carbapenem- resistant Klebsiella pneumoniae KR 15-7 assessed as reduction in bacterial growth in the presence of Avibactam
[30] = test system: Klebsiella pneumoniae; assay: Antibacterial activity against Carbapenem- resistant Klebsiella pneumoniae KR 15-8 assessed as reduction in bacterial growth
[31] = test system: Escherichia coli; assay: Antibacterial activity against ESBLs negative Carbapenem-sensitive Escherichia coli 17-1 assessed as reduction in bacterial growth
[32] = test system: Klebsiella pneumoniae; assay: Antibacterial activity against ESBLs negative Carbapenem-sensitive Klebsiella pneumonia 15-2 assessed as reduction in bacterial growth
[33] = test system: Klebsiella pneumoniae; assay: Antibacterial activity against Carbapenem- sensitive Klebsiella pneumoniae 17-6 overexpressing extended spectrum beta-lactamases assessed as reduction in bacterial growth
[34] = test system: Escherichia coli; assay: Antibacterial activity against ESBLs negative Carbapenem-sensitive Escherichia coli 17-9 assessed as reduction in bacterial growth
[35] = test system: Klebsiella aerogenes; assay: Antibacterial activity against Enterobacter aerogenes 15-3 assessed as reduction in bacterial growth
[36] = test system: Klebsiella pneumoniae; assay: Antibacterial activity against Carbapenem- resistant Klebsiella pneumoniae KR 15-13 assessed as reduction in bacterial growth
[37] = test system: Acinetobacter baumannii; assay: Antibacterial activity against Carbapenem- resistant Acinetobacter baumannii 17-12 assessed as reduction in bacterial growth
[38] = test system: Enterobacter cloacae; assay: Antibacterial activity against Enterobacter cloacae 17-7 assessed as reduction in bacterial growth in the presence of Avibactam
[39] = test system: Acinetobacter baumannii; assay: Antibacterial activity against Carbapenem- resistant Acinetobacter baumannii 17-8 assessed as reduction in bacterial growth
[40] = test system: Escherichia coli; assay: Antibacterial activity against ESBLs positive Carbapenem-sensitive Escherichia coli 17-21 assessed as reduction in bacterial growth
[41] = test system: Pseudomonas aeruginosa; assay: Antibacterial activity against Carbapenem- sensitive Pseudomonas aeruginosa 17-26 assessed as reduction in bacterial growth
[42] = test system: Escherichia coli; assay: Antibacterial activity against ESBLs positive Carbapenem-sensitive Escherichia coli 17-17 assessed as reduction in bacterial growth
[43] = test system: Escherichia coli; assay: Antibacterial activity against ESBLs positive Carbapenem-sensitive Escherichia coli 17-10 assessed as reduction in bacterial growth in the presence of Avibactam
[44] = test system: Pseudomonas aeruginosa; assay: Antibacterial activity against Carbapenem- resistant Pseudomonas aeruginosa 17-5 assessed as reduction in bacterial growth
[45] = test system: Acinetobacter baumannii; assay: Antibacterial activity against Acinetobacter baumannii NCTC 13304 assessed as reduction in bacterial growth
[46] = test system: Klebsiella aerogenes; assay: Antibacterial activity against Enterobacter aerogenes 15-7 assessed as reduction in bacterial growth
[47] = test system: Klebsiella pneumoniae; assay: Antibacterial activity against Carbapenem- sensitive Klebsiella pneumoniae 17-14 overexpressing extended spectrum beta-lactamases assessed as reduction in bacterial growth
[48] = test system: Pseudomonas aeruginosa; assay: Antibacterial activity against Pseudomonas aeruginosa ATCC 27853 assessed as reduction in bacterial growth
[49] = test system: Klebsiella aerogenes; assay: Antibacterial activity against Enterobacter aerogenes 17-3 assessed as reduction in bacterial growth
[50] = test system: Enterobacter cloacae; assay: Antibacterial activity against Enterobacter cloacae 17-1 assessed as reduction in bacterial growth
[51] = test system: Pseudomonas aeruginosa; assay: Bactericidal activity against carbapenem-sensitive Pseudomonas aeruginosa 17-7 assessed as reduction in bacterial growth
[52] = test system: Acinetobacter baumannii; assay: Antibacterial activity against Carbapenem- resistant Acinetobacter baumannii 17-6 assessed as reduction in bacterial growth

Nc1nc(/C(=N/OCc2cc(=O)c(O)cn2O)C(=O)N[C@@H]2C(=O)N3C(C(=O)O)=CCS[C@H]23)cs1
MIC [1]: 16 µg/mL | MIC [2]: 8 µg/mL (≈ 15.7 µM) | MIC [3]: 64 µg/mL (≈ 126 µM) | MIC [4]: 1 µg/mL (≈ 1.97 µM) | MIC [5]: > 64 µg/mL | MIC [6]: > 64 µg/mL | MBC [7]: 64 µg/mL | MIC [8]: 1 µg/mL (≈ 1.97 µM) | MIC [9]: 0.25 µg/mL (≈ 0.492 µM) | MIC [10]: > 64 µg/mL | MIC [11]: ≤ 0.03 µg/mL | MIC [12]: 64 µg/mL (≈ 126 µM) | MBC [13]: 1 µg/mL | MIC [14]: > 64 µg/mL | MBC [15]: 16 µg/mL | MIC [16]: 16 µg/mL | MIC [17]: 8 µg/mL (≈ 15.7 µM) | MIC [18]: 1 µg/mL | MIC [19]: 0.25 µg/mL | MIC [20]: > 64 µg/mL | MIC [21]: 0.06 µg/mL | MIC [22]: 0.25 µg/mL | MIC [23]: 1 µg/mL (≈ 1.97 µM) | MBC [24]: 0.5 µg/mL | MIC [25]: 64 µg/mL (≈ 126 µM) | MIC [26]: 8 µg/mL (≈ 15.7 µM) | MIC [27]: 32 µg/mL (≈ 62.9 µM) | MIC [28]: > 64 µg/mL | MIC [29]: 1 µg/mL | MIC [30]: > 64 µg/mL | MIC [31]: 32 µg/mL (≈ 62.9 µM) | MIC [32]: 0.06 µg/mL (≈ 0.118 µM) | MIC [33]: 0.25 µg/mL (≈ 0.492 µM) | MIC [34]: 0.5 µg/mL (≈ 0.983 µM) | MIC [35]: > 64 µg/mL | MIC [36]: > 64 µg/mL | MIC [37]: > 64 µg/mL | MIC [38]: 2 µg/mL | MIC [39]: > 64 µg/mL | MIC [40]: 64 µg/mL (≈ 126 µM) | MIC [41]: 2 µg/mL (≈ 3.93 µM) | MIC [42]: > 64 µg/mL | MIC [43]: 0.06 µg/mL | MIC [44]: 64 µg/mL (≈ 126 µM) | MIC [45]: > 64 µg/mL | MIC [46]: 4 µg/mL (≈ 7.87 µM) | MIC [47]: 4 µg/mL (≈ 7.87 µM) | MIC [48]: 1 µg/mL (≈ 1.97 µM) | MIC [49]: 2 µg/mL (≈ 3.93 µM) | MIC [50]: 1 µg/mL (≈ 1.97 µM) | MBC [51]: 1 µg/mL (≈ 1.97 µM) | MIC [52]: > 64 µg/mL
